The experiment concerns P388 leukemia ip, CD2F1 mice, survival T/C. Nature of the experiment: NCI In Vivo Anticancer Drug Screen. Data for tumor model P388 Leukemia (intraperitoneal) in CD2F1 (CDF1) mice. As to conditions: endpoint: median survival time, higher = longer survival. A digest of the protocol: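 Mice carrying the transplanted tumor received test compound or vehicle. Survival was recorded in each group, and the value is the treated-group measurement divided by that of the vehicle-treated control group.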

Where [1] appears, read: dose: 100.0 mg/kg/injection, schedule: Q01DX009 (ip), vehicle: saline.
[2] abbreviates: dose: 200.0 mg/kg/injection, schedule: Q01DX009 (ip), vehicle: saline.
The mark [3] stands for this setting: dose: 60.0 mg/kg/injection, schedule: Q01DX005 (ip), vehicle: saline.
[4] abbreviates: dose: 120.0 mg/kg/injection, schedule: Q01DX005 (ip), vehicle: saline.
[5] abbreviates: dose: 12.5 mg/kg/injection, schedule: Q01DX009 (ip), vehicle: Klucel (hydroxypropylcellulose) (HPC).
Where [6] appears, read: dose: 25.0 mg/kg/injection, schedule: Q01DX009 (ip), vehicle: Klucel (hydroxypropylcellulose) (HPC).
The mark [7] stands for this setting: dose: 50.0 mg/kg/injection, schedule: Q01DX009 (ip), vehicle: Klucel (hydroxypropylcellulose) (HPC).
[8] abbreviates: dose: 100.0 mg/kg/injection, schedule: Q01DX009 (ip), vehicle: Klucel (hydroxypropylcellulose) (HPC).
Setting [9] is: dose: 50.0 mg/kg/injection, schedule: Q01DX009 (ip), vehicle: saline with Tween-80.
The mark [10] stands for this setting: dose: 50.0 mg/kg/injection, schedule: Q01DX005 (ip), vehicle: Klucel (hydroxypropylcellulose) (HPC).
Setting [11] is: dose: 100.0 mg/kg/injection, schedule: Q01DX005 (ip), vehicle: Klucel (hydroxypropylcellulose) (HPC).
[12] abbreviates: dose: 200.0 mg/kg/injection, schedule: Q01DX005 (ip), vehicle: Klucel (hydroxypropylcellulose) (HPC).
Where [13] appears, read: dose: 50.0 mg/kg/injection, schedule: Q01DX005 (ip), vehicle: saline with Tween-80.
Setting [14] is: dose: 100.0 mg/kg/injection, schedule: Q01DX005 (ip), vehicle: saline with Tween-80.
Where [15] appears, read: dose: 200.0 mg/kg/injection, schedule: Q01DX005 (ip), vehicle: saline with Tween-80.
Setting [16] is: dose: 60.0 mg/kg/injection, schedule: Q01DX005 (ip), vehicle: Klucel (hydroxypropylcellulose) (HPC).
Setting [17] is: dose: 120.0 mg/kg/injection, schedule: Q01DX005 (ip), vehicle: Klucel (hydroxypropylcellulose) (HPC).
Setting [18] is: dose: 6.25 mg/kg/injection, schedule: Q01DX009 (ip), vehicle: saline with Tween-80.
Where [19] appears, read: dose: 12.5 mg/kg/injection, schedule: Q01DX009 (ip), vehicle: saline with Tween-80.
Where [20] appears, read: dose: 25.0 mg/kg/injection, schedule: Q01DX009 (ip), vehicle: saline with Tween-80.
[21] abbreviates: dose: 100.0 mg/kg/injection, schedule: Q01DX009 (ip), vehicle: saline with Tween-80.

“And” between values parts separate entries of the source, which are not always exact repeats. Equal entries are not always repeated. Inconclusive results and toxic doses are left out.

`NS(=O)(=O)c1cccc(NC(=S)Nc2ccccc2)c1`: the T/C (dose: 6.25 mg/kg/injection, schedule: Q01DX009 (ip), vehicle: saline) is 103 % of control (2×) and 108 % of control; the T/C (dose: 12.5 mg/kg/injection, schedule: Q01DX009 (ip), vehicle: saline) was 101 % of control and 106 % of control; the T/C (dose: 25.0 mg/kg/injection, schedule: Q01DX009 (ip), vehicle: saline) is 99 % of control and 109 % of control and 94 % of control; the T/C under setting [1] was 99 % of control and 92 % of control; the T/C under setting [2] is 100 % of control and 110 % of control.

Turning to `[O-][Br+2]([O-])O`, the T/C is 99 % of control under setting [3] and 99 % of control under setting [4].

Regarding `CC1(C)OCC(N)[C@@H](O)CO1` (stereo not given in full), the T/C runs as follows: under setting [3], 100 % of control; under setting [4], 96 % of control; (dose: 240.0 mg/kg/injection, schedule: Q01DX005 (ip), vehicle: saline) 100 % of control.

Take `CC(C)c1ccc(/C(O)=C/C(=O)C(=O)/C=C(/O)c2ccc(C(C)C)cc2)cc1`: the T/C was 100 % of control (dose: 100.0 mg/kg/injection, schedule: Q04DX002 (ip), vehicle: saline); 100 % of control (dose: 200.0 mg/kg/injection, schedule: Q04DX002 (ip), vehicle: saline); 99 % of control (dose: 400.0 mg/kg/injection, schedule: Q04DX002 (ip), vehicle: saline).

With `CC(=O)NCc1cc(C)c(CBr)cc1CBr`, the T/C by setting is: (dose: 0.78 mg/kg/injection, schedule: Q01DX009 (ip), vehicle: distilled water + Tween-80) 103 % of control; (dose: 1.56 mg/kg/injection, schedule: Q01DX009 (ip), vehicle: distilled water + Tween-80) 107 % of control; (dose: 3.12 mg/kg/injection, schedule: Q01DX009 (ip), vehicle: distilled water + Tween-80) 109 % of control; (dose: 6.25 mg/kg/injection, schedule: Q01DX009 (ip), vehicle: distilled water + Tween-80) 116 % of control; (dose: 12.5 mg/kg/injection, schedule: Q01DX009 (ip), vehicle: distilled water + Tween-80) 93 % of control.

In the case of `O=C(/C=N/O)Nc1ccccc1`, the T/C was 100 % of control and 107 % of control under setting [5]; 99 % of control and 100 % of control and 106 % of control under setting [6]; 103 % of control and 92 % of control under setting [7]; 101 % of control and 109 % of control and 114 % of control under setting [8].

Turning to `O=C(Nc1ccccc1)Oc1cccc(/C=N/Sc2ccccc2)c1`, the T/C under setting [9] was 98 % of control.

For the compound `[Cl][Sn]([c]1ccccc1)([c]1ccccc1)[c]1ccccc1`, the T/C (dose: 2.5 mg/kg/injection, schedule: Q01DX009 (ip), vehicle: saline) is 100 % of control and the T/C (dose: 5.0 mg/kg/injection, schedule: Q01DX009 (ip), vehicle: saline) is 115 % of control.

For the compound `CCOC(=O)C1Sc2c(c(=O)n(C)c3ccccc23)C1=O` (stereo not given), the T/C reads like this: under setting [10], 101 % of control and 107 % of control and 110 % of control; under setting [11], 99 % of control and 105 % of control and 108 % of control; under setting [12], 108 % of control and 112 % of control and 123 % of control.

In the case of `CCC(c1ccccc1)c1cc2c(cc1OC(C)=O)OCO2` (stereo not given), the T/C reads like this: under setting [13], 104 % of control; under setting [14], 107 % of control; under setting [15], 102 % of control.

Consider `COC(=O)Nc1c2ccccc2nc2c1c(C)c(C)c1ccccc12`, for which the T/C is 88 % of control (dose: 100.0 mg/kg/injection, schedule: Q01DX001 (ip), vehicle: saline with Tween-80); 88 % of control (dose: 200.0 mg/kg/injection, schedule: Q01DX001 (ip), vehicle: saline with Tween-80); 95 % of control (dose: 400.0 mg/kg/injection, schedule: Q01DX001 (ip), vehicle: saline with Tween-80).

In the case of `Cc1ccc(NCN2C(=O)c3ccccc3C2=O)c(C)n1`, the T/C by setting is: under setting [16], 92 % of control; under setting [17], 89 % of control.

As to `CCc1ccc(C2=C(O)C(=O)C(c3ccc(CC)cc3)=C(O)C2=O)cc1`, the T/C is 100 % of control under setting [18]; 110 % of control under setting [19]; 163 % of control (dose: 33.0 mg/kg/injection, schedule: Q01DX009 (ip), vehicle: saline with Tween-80).

For `CCC1(c2ccc(N)cc2)CCC(=O)NC1=O` (stereo not given), the T/C reads like this: under setting [10], 91 % of control; under setting [11], 100 % of control.

As for `COc1cc2c(cc1Cc1ccc3c(c1)OCO3)OCO2`, the T/C was 94 % of control under setting [10], 92 % of control under setting [11] and 89 % of control under setting [12].

Consider `O=Nc1c2ccccc2c(NO)c2ccccc12`, for which the T/C by setting is: (dose: 100.0 mg/kg/injection, schedule: Q04DX002 (ip), vehicle: saline with Tween-80) 94 % of control; (dose: 200.0 mg/kg/injection, schedule: Q04DX002 (ip), vehicle: saline with Tween-80) 92 % of control; (dose: 400.0 mg/kg/injection, schedule: Q04DX002 (ip), vehicle: saline with Tween-80) 98 % of control.

Consider `O=C(NC1CCCCC1)ON1C(=O)C2C3C=CC(C3)C2C1=O` (stereo not given), for which the T/C runs as follows: (dose: 3.12 mg/kg/injection, schedule: Q01DX009 (ip), vehicle: saline with Tween-80) 101 % of control and 98 % of control; under setting [18], 106 % of control and 110 % of control and 113 % of control; under setting [19], 106 % of control and 110 % of control; under setting [20], 113 % of control and 117 % of control and 98 % of control; under setting [9], 119 % of control.

As for `O/N=c1/ccn(O)c2ccccc12`, the T/C is, setting by setting: (dose: 0.78 mg/kg/injection, schedule: Q01DX009 (ip), vehicle: saline) 161 % of control; (dose: 1.56 mg/kg/injection, schedule: Q01DX009 (ip), vehicle: saline) 171 % of control; (dose: 3.12 mg/kg/injection, schedule: Q01DX009 (ip), vehicle: saline) 204 % of control.

For `NC(=O)CCC(N)C(=O)O` (stereo not given), the T/C under setting [19] is 105 % of control; the T/C under setting [20] is 119 % of control; the T/C under setting [9] is 112 % of control; the T/C (dose: 50.0 mg/kg/injection, schedule: Q01DX009 (ip), vehicle: saline) was 113 % of control; the T/C under setting [1] was 101 % of control and 116 % of control; the T/C under setting [2] was 90 % of control and 109 % of control. Moreover, the T/C (dose: 400.0 mg/kg/injection, schedule: Q01DX009 (ip), vehicle: saline) was 109 % of control.

For the compound `CC1(C)Oc2ccccc2O1`, the T/C reads like this: under setting [19], 96 % of control; under setting [20], 108 % of control; under setting [9], 107 % of control; under setting [21], 113 % of control.

Consider `COc1ccc([N+](=O)[O-])cc1NC(=O)N(C)Cc1ccco1`, for which the T/C reads like this: under setting [9], 103 % of control; under setting [21], 109 % of control; (dose: 200.0 mg/kg/injection, schedule: Q01DX009 (ip), vehicle: saline with Tween-80) 106 % of control.

Take `CC(C)NC(=O)N(CCCCBr)N=O`: the T/C is, setting by setting: (dose: 6.25 mg/kg/injection, schedule: Q01DX009 (ip), vehicle: Klucel (hydroxypropylcellulose) (HPC)) 92 % of control; under setting [5], 99 % of control; under setting [6], 101 % of control; under setting [7], 117 % of control.

Regarding `c1ccc(OCCNCCOc2ccccc2)cc1`, the T/C reads like this: under setting [16], 104 % of control; under setting [17], 98 % of control; (dose: 240.0 mg/kg/injection, schedule: Q01DX005 (ip), vehicle: Klucel (hydroxypropylcellulose) (HPC)) 103 % of control.

In the case of `Cc1cc(C)c(Cn2c(=O)[nH][nH]c2=O)cc1Cn1c(=O)[nH][nH]c1=O`, the T/C was 107 % of control under setting [7]; 100 % of control under setting [8]; 100 % of control (dose: 200.0 mg/kg/injection, schedule: Q01DX009 (ip), vehicle: Klucel (hydroxypropylcellulose) (HPC)).

As for `CC(=O)Oc1ccc([N+](=O)[O-])cc1[N+](=O)[O-]`, the T/C by setting is: (dose: 6.25 mg/kg/injection, schedule: Q04DX002 (ip), vehicle: Klucel (hydroxypropylcellulose) (HPC)) 97 % of control; (dose: 12.5 mg/kg/injection, schedule: Q04DX002 (ip), vehicle: Klucel (hydroxypropylcellulose) (HPC)) 103 % of control; (dose: 25.0 mg/kg/injection, schedule: Q04DX002 (ip), vehicle: Klucel (hydroxypropylcellulose) (HPC)) 100 % of control.

Regarding `CC1CCC2(C)OC1OC2=O` (stereo not given), the T/C by setting is: under setting [13], 97 % of control; under setting [14], 91 % of control; under setting [15], 87 % of control.

Source of the values: PubChem BioAssay AID330 (DTP/NCI, 2004).
